Tests used:
brain NOS = brain NOS activity in cerebellar homogenates after i.p. administration; type: in vivo, rat (Sprague-Dawley)
Description: Adult male rats (Sprague-Dawley, 3 per group) were injected intraperitoneally (i.p.) twice daily with 5 mg/kg or 50 mg/kg of NO2 Arg, MeArg, arginine or vehicle twice a day for four consecutive days. The animals were sacrificed by decapitation 14 hours following the last injection.
Cerebellar homogenates were used to determine NOS activity.

NOS = conditions: cited from earlier work
[1] = test system: brain-endothelial and macrophage NOS; conditions: cited from earlier work
cGMP formation = cGMP formation in cortical cell cultures (RIA); type: cell-based, rat; conditions: 300 μM NMDA (plus 10 μM glycine), 1 minute; 100 μM NO2 Arg, 1 mM L-Arg, 100 units of SOD, 500 μM Hb
Description: Primary dissociated cell cultures were prepared from fetal rats (13-to 14-day gestation for cortex and caudate-putamen cultures and 19- to 20-day gestation for hippocampal cultures). […] Dissociated cells were plated at a density of 3-4×10^5 cells per well in polyornithine-coated 15-mm multiwell plates. After 4 days the cells were treated with 10 μg of 5-fluoro-2'-deoxyuridine to prevent proliferations of noneuronal cells. Cells were maintained in MEM/5% horse serum/2 mM glutamine in 8% CO2 /humidified atmosphere at 37° C. The medium was changed twice weekly. Mature neurons (3-4 weeks) were used.
For determination of cGMP the cells were washed three times with CSS. […] After ether extraction, cGMP levels were determined by RIA.
Data are means ±SEM (n=6-8).
Data are means ±SEM (n=8-12).

[2] = test system: macrophage NOS (activated macrophage homogenates); experiment: inhibition of NOS activity in activated macrophage homogenates in vitro; type: biochemical
From the text: Inhibitors of NOS are compounds which compete for the substrate binding site of NOS or other sites on the enzyme, and include both reversible and irreversible inhibitors. The present invention contemplates the use of any physiologically acceptable inhibitor which inhibits NOS activity. The effectiveness of a compound, and its relative potency as an NOS inhibitor, can be tested and routinely determined by measuring inhibition of NOS activity by monitoring the conversion of arginine to citrulline by NOS in, for example, cerebellar homogenates. A reduction in citrulline formation indicates inhibitory activity of the compound. The percent reduction in citrulline formation, compared to the amount of citrulline formed in the absence of the compound being tested, indicates the potency of the compound as an NOS inhibitor.
NOS activity was measured by monitoring the conversion of [^3 H]arginine to [^3 H]citrulline as described by Bredt and Snyder (Proc. Natl. Acad. Sci USA (1990) 87682-685). Briefly, enzyme assays contained 25 μl of soluble tissue, 50 μl of […] [^3 H]arginine and 1 mM NADPH, and 25 μl of 3 mM CaCl2. After a 15 minute incubation at room temperature, the assays were terminated with 3 ml of 20 mM Hepes (pH 5.5) with 2 mM EDTA, and were applied to 0.5 ml columns of Dowex AG50WX8 (Na^+ form). [^3 H]citrulline was quantified by liquid scintillation spectroscopy of the 3 ml flow-through.
Accordingly, the effects of 2, 4 and 24 hours of preincubations of cerebellar supernatants (FIG. 2A) and activated macrophage homogenates (FIG. 2B) with NO2 Arg were examined. The preincubation was conducted at 4° C. since NOS is unstable at higher temperature for long periods of time. Enzymatic incubation was conducted for only 5 minutes to minimize any reaction of the inhibitor with the enzyme in the course of the incubation procedure.
Macrophages were activated as described by Tayeh and Marletta (J. Biol. Chem. (1989) 264:19654-19658) with 3.5 ng/ml LPS from E. coli and 5 units/ml recombinant murine γ-interferon for 24 hours at 37° C. Cells were homogenized in 20 mM Hepes (pH 7.4).

[3] = test system: brain or macrophage enzyme (NOS); experiment: NOS inhibition and brain/macrophage selectivity of arginine, nitroarginine and guanidinoalkanoic acid analogs; type: biochemical
NOS protein = experiment: Western blot of NOS protein in brain extracts after i.p. administration; type: in vivo, rat; conditions: i.p. administration of 5 and 50 mg/kg
Description: To determine whether NO2 Arg administration alters levels of NOS protein, Western blot analysis of brain extracts were performed following the i.p. administration of both 5 and 50 mg/kg of NO2 Arg. Soluble cerebellar homogenates (100 μg) were separated on a 7.5% SDS-polyacrylamide gel and transferred to nitrocellulose. Lanes were incubated overnight with affinity purified NOS antibody (1:2500) at room temperature, and bands were visualized with an alkaline phosphatase linked secondary antibody. […] Therefore, the loss of NOS activity following peripheral administration of NO2 Arg is not attributed to inhibition of the synthesis of enzyme protein.

In the case of N=C(NCCC[C@H](N)C(=O)O)N[N+](=O)[O-] [NO2 Arg, L-N^ω -nitroarginine], the “inhibition of brain NOS” value (brain NOS; 5 mg/kg i.p. twice daily, four consecutive days, 14 hours after last injection) is reported as “about 50%”, the “inhibition of enzyme activity in the brain after peripheral administration” value (brain NOS; 5 mg/kg, peripheral administration) is reported as “markedly inhibits enzyme activity in the brain” and the “inhibition of brain NOS enzyme activity” value (brain NOS; 50 mg/kg i.p. twice daily, four consecutive days, 14 hours after last injection) is reported as 95%. For the same molecule, the “inhibition of NOS activity, repeated administration for 7 days versus 4 days” value (brain NOS; 7 days) was “no greater inhibition of NOS activity than 4 days of treatment”, the “nature of inhibition of NOS in vivo” value (brain NOS; FIG. 3, before and after dialysis) was “irreversible inhibition” and the “effect of dialysis on enzyme activity” value (brain NOS; crude supernatant from treated animals dialyzed for 24 hours) was “only slightly increases enzyme activity”. The “time for which brain NOS activity does not return to normal levels” value (brain NOS; following 90% inhibition with 50 mg/kg) was “at least 5 days”, the “reduction of enzyme activity” value (brain NOS; single injection of 50 mg/kg) was 50% and the Ki (NOS; Dwyer et al. (1991), read-out: Ki, inhibition of NOS activity of purified enzyme preparations) was 0.2 µM. For the same molecule, the “mode of inhibition of NOS” value (NOS; Moore (1990)) was “competitive inhibitor of NOS”, the “inhibition of brain-endothelial versus macrophage enzyme” value ([1]; Gross et al. (1990)) was “weaker inhibitor of the macrophage enzyme” and the “greater potency in inhibiting brain-endothelial than macrophage NOS” value ([1]; incubations at 37° C. for about 1/2 hour, 30 min) was 10-300 fold. The “effect on NMDA stimulation of cGMP formation” value (cGMP formation) was “antagonized”, the “potency in inhibiting the macrophage enzyme compared to the cerebellar enzyme” value ([2]; 24 hours of incubation) was “about 7%” and the “enhancement of potency after preincubation” value ([2]; preincubation with the enzyme, 24 hours, FIG. 2B) was “only a minimal enhancement of potency”. The “potency as NOS inhibitor relative to cerebellar preparations” value ([2]; supernatant preparations of activated macrophage cultures, FIG. 2B) was “less potent inhibitor of NOS than in cerebellar preparations”, the “inhibition potency among nitroarginine analogs” value [3] was “most potent inhibitor” and the “alterations in NOS protein” value (NOS protein) was “No alterations in NOS protein were observed”.

— patent US5266594A, “Inhibitors of nitric oxide synthase and use thereof to prevent glutamate neurotoxicity” (priority 1992, dated 1993)
